Source: US20230414607A1, “METHODS OF TREATMENT” (BOW RIVER LLC, priority 2017, published 2023)
Where two headings read alike, the source gives them in different places.

Columns and labels:
CYP3A4 = CYP3A4 (Homo sapiens, UniProt P08684); settings: cited from earlier work
[1] = AUC and Cmax target safe levels of CYP3A4 substrate drugs (Table 1)
From the text: In various embodiments, the “Target safe levels” are non-limiting examples of the upper limit of fold change or percent of baseline where in some embodiments the benefits of treating the patient for the condition or disease for which the CYP3A4 substrate drug is indicated outweigh the risks associated with the effects of a drug-drug interaction. […] For purposes of the present methods, the blood plasma levels measured during co-administration of the CYP3A4 substrate drug with […] may be used to estimate the posaconazole DDI decay curve, e.g., using equation 1.

[2] = co-administered with a strong CYP3A4 inhibitor (posaconazole, itraconazole, ritonavir, or ketoconazole)
[3] = component of ivacaftor/tezacaftor
[4] = upper limit where benefits outweigh risks, approximation, can vary by about ±25%

Sequence of CYP3A4 (P08684 whole entry): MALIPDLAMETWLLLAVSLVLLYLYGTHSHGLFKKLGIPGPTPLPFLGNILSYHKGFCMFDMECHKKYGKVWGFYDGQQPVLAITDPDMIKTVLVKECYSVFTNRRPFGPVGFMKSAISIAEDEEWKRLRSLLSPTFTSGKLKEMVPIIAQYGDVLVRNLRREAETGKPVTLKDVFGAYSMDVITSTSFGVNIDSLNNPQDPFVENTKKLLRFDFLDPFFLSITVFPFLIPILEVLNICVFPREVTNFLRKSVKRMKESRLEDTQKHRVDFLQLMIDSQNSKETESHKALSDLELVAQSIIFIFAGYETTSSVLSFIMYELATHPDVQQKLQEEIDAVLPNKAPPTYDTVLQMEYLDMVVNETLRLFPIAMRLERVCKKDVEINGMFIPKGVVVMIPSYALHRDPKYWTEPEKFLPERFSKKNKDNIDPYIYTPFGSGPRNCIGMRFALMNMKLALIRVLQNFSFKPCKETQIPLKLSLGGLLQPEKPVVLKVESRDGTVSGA

Structure (SMILES)	AUC co-administration levels, Fold change (CYP3A4; in vivo)	AUC co-administration levels, Percent of baseline (CYP3A4; in vivo)	Cmax co-administration levels, Fold change (CYP3A4; in vivo)	Cmax co-administration levels, Percent of baseline (CYP3A4; in vivo)	other results
COc1cc(Nc2c(C#N)cnc3cc(OCCCN4CCN(C)CC4)c(OC)cc23)c(Cl)cc1Cl [bosutinib]	2 fold	200%	1.5 fold	150%	–
COc1cc(N2CCC(N3CCN(C)CC3)CC2)ccc1Nc1ncc(Cl)c(Nc2ccccc2P(C)(C)=O)n1 [brigatinib]	2.01 fold	201%	1.21 fold	121%	–
CO[C@H]1C(=O)[C@]2(C)[C@@H](OC)C[C@H]3OC[C@@]3(OC(C)=O)[C@H]2[C@H](OC(=O)c2ccccc2)[C@]2(O)C[C@H](OC(=O)[C@H](O)[C@@H](NC(=O)OC(C)(C)C)c3ccccc3)C(C)=C1C2(C)C [cabazitaxel]	1.25 fold	125%	–	–	–
O=C(c1ccc(F)c(F)c1Nc1ccc(I)cc1F)N1CC(O)([C@@H]2CCCCN2)C1 [cobimetinib]	6.7 fold	670%	3.2 fold	320%	–
CC(C)(C)c1nc(-c2cccc(NS(=O)(=O)c3c(F)cccc3F)c2F)c(-c2ccnc(N)n2)s1 [dabrafenib]	1.71 fold	171%	–	–	–
COC(=O)N[C@H](C(=O)N1CCC[C@H]1c1nc(-c2ccc3c(c2)O[C@@H](c2ccccc2)n2c-3cc3cc(-c4c[nH]c([C@@H]5CCCN5C(=O)[C@@H](NC(=O)OC)C(C)C)n4)ccc32)c[nH]1)C(C)C [elbasvir]	EBR: 1.8; fold	180%;	1.29; fold	129%;	–
COC(=O)N[C@@H](C)CNc1nccc(-c2cn(C(C)C)nc2-c2cc(Cl)cc(NS(C)(=O)=O)c2F)n1 [encorafenib]	3 fold	300%	1.45 fold	145%	elevation of baseline AUC when coadministered with posaconazole (percent of baseline) (CYP3A4; in vivo): 300%
O=c1[nH]c2ccccc2n1CCN1CCN(c2cccc(C(F)(F)F)c2)CC1 [flibanserin]	1.4 fold	140%	1.1 fold	110%	–
CCC(=O)O[C@]1(C(=O)SCF)[C@H](C)C[C@H]2[C@@H]3C[C@H](F)C4=CC(=O)C=C[C@]4(C)[C@@]3(F)[C@@H](O)C[C@@]21C [fluticasone propionate]	–	–	–	–	AUC co-administration levels, Fold change (CYP3A4; [2]): 1.9; fold; AUC co-administration levels, Percent of baseline (CYP3A4; [2]): 190%;
C=C[C@@H]1C[C@]1(NC(=O)[C@@H]1C[C@@H]2CN1C(=O)[C@H](C(C)(C)C)NC(=O)O[C@@H]1C[C@H]1CCCCCc1nc3ccc(OC)cc3nc1O2)C(=O)NS(=O)(=O)C1CC1.O [grazoprevir]	GZR: 3.02 fold	302%	1.13 fold	113%	–
C=CC(=O)N1CCC[C@@H](n2nc(-c3ccc(Oc4ccccc4)cc3)c3c(N)ncnc32)C1 [ibrutinib]	–	–	–	–	AUC target safe level, Percent of baseline ([1]; human): 300%
CC(C)(C)c1cc(C(C)(C)C)c(NC(=O)c2c[nH]c3ccccc3c2=O)cc1O [ivacaftor]	–	–	–	–	AUC target safe level, Fold change [1, 3]: 2.95; fold; AUC target safe level, Percent of baseline [1, 3]: 295%;; Cmax target safe level, Fold change [1, 3]: 2.47; fold; Cmax target safe level, Percent of baseline [1, 3]: 247%;; AUC target safe level, Fold change [1, 4]: 3 fold; AUC target safe level, Percent of baseline [1, 4]: 300%; Cmax target safe level, Fold change [1, 4]: 2.7 fold; Cmax target safe level, Percent of baseline [1, 4]: 270%
O=C(Nc1cnn2ccc(N3CCC[C@@H]3c3cc(F)ccc3F)nc12)N1CC[C@H](O)C1 [larotrectinib]	4.3 fold	430%	2.8 fold	280%	–
C[C@H]1Oc2cc(cnc2N)-c2c(nn(C)c2C#N)CN(C)C(=O)c2ccc(F)cc21 [lorlatinib]	1.42 fold	142%	1.24 fold	124%	–
CO[C@@H]1[C@H](N(C)C(=O)c2ccccc2)C[C@H]2O[C@]1(C)n1c3ccccc3c3c4c(c5c6ccccc6n2c5c31)C(=O)NC4 [midostaurin]	–	–	–	–	AUC target safe level, Fold change ([1]; human): 10.4 fold; AUC target safe level, Percent of baseline ([1]; human): 1040%
CC(C)(NC(=O)C1=C(O)[C@@H]2Oc3c(O)ccc4c3[C@@]23CCN(CC2CC2)[C@H](C4)[C@]3(O)C1)c1nc(-c2ccccc2)no1 [naldemedine]	–	–	–	–	AUC target safe level, Fold change [1, 4]: 1.9 fold; AUC target safe level, Percent of baseline [1, 4]: 190%; Cmax target safe level, Fold change [1, 4]: 1.38 fold; Cmax target safe level, Percent of baseline [1, 4]: 138%
Cc1cn(-c2cc(NC(=O)c3ccc(C)c(Nc4nccc(-c5cccnc5)n4)c3)cc(C(F)(F)F)c2)cn1 [nilotinib]	3 fold	300%	–	–	–
O=C(c1cc(Cc2n[nH]c(=O)c3ccccc23)ccc1F)N1CCN(C(=O)C2CC2)CC1 [olaparib]	2.2 fold	220%	1.1 fold	110%	–
Cc1[nH]c2ccccc2c1CCNCc1ccc(/C=C/C(=O)NO)cc1 [panobinostat]	–	–	–	–	AUC target safe level, Fold change ([1]; human): 1.73 fold; AUC target safe level, Percent of baseline ([1]; human): 173%; Cmax target safe level, Fold change ([1]; human): 1.62 fold; Cmax target safe level, Percent of baseline ([1]; human): 162%
CC(C)COc1ccc(CNC(=O)N(Cc2ccc(F)cc2)C2CCN(C)CC2)cc1 [pimavanserin]	–	–	–	–	AUC target safe level, Fold change ([1]; human): 3 fold; AUC target safe level, Percent of baseline ([1]; human): 300%; Cmax target safe level, Fold change ([1]; human): 1.5 fold; Cmax target safe level, Percent of baseline ([1]; human): 150%
CNC(=O)c1cc(Oc2ccc(NC(=O)Nc3ccc(Cl)c(C(F)(F)F)c3)c(F)c2)ccn1 [regorafenib]	1.33 fold	133%	–	–	–
CN(C)C(=O)c1cc2cnc(Nc3ccc(N4CCNCC4)cn3)nc2n1C1CCCC1 [ribociclib]	3.2 fold	320%	1.7 fold	170%	–
N#CC[C@H](C1CCCC1)n1cc(-c2ncnc3[nH]ccc23)cn1 [ruxolitinib]	–	–	–	–	AUC target safe level, Fold change ([1]; human): 1.91 fold; AUC target safe level, Percent of baseline ([1]; human): 191%; Cmax target safe level, Fold change ([1]; human): 1.33 fold; Cmax target safe level, Percent of baseline ([1]; human): 133%
N#C[C@@H]1C[C@@H]2C[C@@H]2N1C(=O)[C@@H](N)C12CC3CC(CC(O)(C3)C1)C2 [saxagliptin]	3.67 fold	367%	2.44 fold	244%	–
CCN(CC)CCNC(=O)c1c(C)[nH]c(/C=C2\C(=O)Nc3ccc(F)cc32)c1C [sunitinib]	–	–	–	–	AUC target safe level, Fold change [1, 4]: 1.51 fold; AUC target safe level, Percent of baseline [1, 4]: 151%; Cmax target safe level, Fold change [1, 4]: 1.49 fold; Cmax target safe level, Percent of baseline [1, 4]: 149%
CC(C)(CO)c1cc2cc(NC(=O)C3(c4ccc5c(c4)OC(F)(F)O5)CC3)c(F)cc2n1C[C@@H](O)CO [tezacaftor]	–	–	–	–	AUC target safe level, Fold change ([1]; human): 2.0 fold; AUC target safe level, Percent of baseline ([1]; human): 200%
C[C@@H]1CCN(C(=O)CC#N)C[C@@H]1N(C)c1ncnc2[nH]ccc12 [tofacitinib]	–	–	–	–	AUC target safe level, Percent of baseline ([1]; human): 175%
COc1cc2c(cc1OC)[C@H]1C[C@@H](OC(=O)[C@@H](N)C(C)C)[C@H](CC(C)C)CN1CC2 [valbenazine]	–	–	–	–	AUC target safe level, Fold change ([1]; human): val: 2.2 fold; AUC target safe level, Percent of baseline ([1]; human): val: 220%; Cmax target safe level, Fold change ([1]; human): val: 1.6 fold; Cmax target safe level, Percent of baseline ([1]; human): val: 160%
